Measurements as given in PMC12439166, “Dietary flavonoids form supramolecular assemblies, alter biochemistry, and enhance cell resilience” (Frontiers in Nutrition, 2025).

Experiments:
[1] = molecular target: T1, Lysine demethylase 4C (KDM4C) (Homo sapiens, UniProt Q9H3R0); assay: Enzyme activity assay (SAMDI-MS), KDM4C; assay type: biochemical; conditions: 10 concentrations, 5 nM to 100 μM, compounds incubated with enzyme 30 min, result in words
T1 sequence (Q9H3R0 1-1056): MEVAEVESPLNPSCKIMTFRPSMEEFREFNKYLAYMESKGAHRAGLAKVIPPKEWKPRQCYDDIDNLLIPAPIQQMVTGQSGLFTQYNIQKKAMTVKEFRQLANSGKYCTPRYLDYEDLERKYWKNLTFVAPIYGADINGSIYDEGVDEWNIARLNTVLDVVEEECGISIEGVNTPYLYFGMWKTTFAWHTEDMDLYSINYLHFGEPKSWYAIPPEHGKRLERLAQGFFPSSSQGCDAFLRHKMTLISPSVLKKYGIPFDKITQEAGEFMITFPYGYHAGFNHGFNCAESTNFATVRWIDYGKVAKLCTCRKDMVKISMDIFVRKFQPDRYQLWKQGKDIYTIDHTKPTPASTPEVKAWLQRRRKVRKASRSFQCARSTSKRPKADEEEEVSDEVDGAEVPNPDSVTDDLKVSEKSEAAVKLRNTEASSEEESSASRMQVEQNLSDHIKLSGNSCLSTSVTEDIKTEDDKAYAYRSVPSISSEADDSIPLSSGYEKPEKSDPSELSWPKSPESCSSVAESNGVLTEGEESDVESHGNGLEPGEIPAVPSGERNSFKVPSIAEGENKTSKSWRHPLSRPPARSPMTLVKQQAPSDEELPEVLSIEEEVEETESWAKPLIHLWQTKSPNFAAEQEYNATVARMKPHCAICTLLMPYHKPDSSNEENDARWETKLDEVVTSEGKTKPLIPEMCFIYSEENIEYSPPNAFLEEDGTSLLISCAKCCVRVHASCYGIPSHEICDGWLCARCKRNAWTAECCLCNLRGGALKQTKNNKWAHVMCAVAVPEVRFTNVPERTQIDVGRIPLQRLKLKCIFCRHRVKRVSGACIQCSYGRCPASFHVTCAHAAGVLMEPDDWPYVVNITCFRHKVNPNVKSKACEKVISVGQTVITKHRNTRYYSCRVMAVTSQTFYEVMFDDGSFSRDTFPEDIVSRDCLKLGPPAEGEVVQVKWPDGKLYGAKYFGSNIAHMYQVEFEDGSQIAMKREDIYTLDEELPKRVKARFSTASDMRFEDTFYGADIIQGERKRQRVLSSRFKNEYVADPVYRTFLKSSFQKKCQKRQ
Procedure: (§1) Enzyme screens were performed by SAMDI Tech (contract research organization); enzyme assays were performed in a 20 μL volume in 384-well low-volume polypropylene microtiter plates (Greiner Bio-One) at room temperature. The enzymes [Arginase 1 (ARG1), Lysine demethylase 4C (KDM4C), MAP/microtubule affinity-regulating kinase 4 (MARK4), Histone-Lysine N-methyltransferase (NSD2), Tyrosine-protein phosphatase non-receptor type 1 (PTP1B), and Sirtuin-3 (SIRT3)] were incubated with compounds for 30 min prior to initiation of the reaction by the addition of substrate and cofactors (if required). Reactions were quenched by the addition of 0.5% formic acid (final) with subsequent neutralization using 1% sodium bicarbonate (final). For SAMDI MS analysis, 2 μL of each reaction was transferred using a 384-channel automated liquid handler to SAMDI biochip arrays functionalized with a neutravidin-presenting self-assembled monolayer. The preparation of SAMDI biochip arrays has been previously described ([41], [42], [49]). The SAMDI arrays were incubated for 1 h in a humidified chamber to allow specific immobilization of the biotinylated substrates and products; they were then purified by washing with ultrafiltered water (50 μL/spot) and dried with compressed air. A matrix comprising α-Cyano-4-hydroxycinnamic acid in 80% acetonitrile: 20% aqueous ammonium citrate (10 mg/mL final) was applied in an automated format by dispensing 50 nL to each spot in the array. SAMDI MS was performed using reflector positive mode on an AB Sciex TOF-TOF 5800 System (AB Sciex, Framingham, MA) with 400 shots/spot analyzed in a random raster sampling. For data analysis, the area under the curves (AUCs) for the product peak and substrate peak were calculated using the TOF/TOF Series Explorer (AB Sciex), and the amount of product formed was calculated using the equation AUC product / (AUC product + AUC Substrate). Negative controls were pre-quenched with 0.5% formic acid (final). Lysozyme assay was performed using the manufacturer’s instructions (Biovision Lysozyme inhibitor screening kit K237). Flavonoids were acquired from Sigma-Aldrich and Seleckchem.
IC50 values of enzyme inhibition. Inhibition of the enzymes was measured at 10 concentration values in the range of 5 nM to 100 μM for each compound and enzyme, with two technical replicates; the percent inhibition values were determined by SAMDI software. Sigmoidal curves were fitted to the percent inhibition vs log10 (concentration) series, and IC50 values were determined at the crossing point of 50 % inhibition. Manual verification of the fits and the IC50 values was performed. The resulting IC50 values fell into the following categories: (a) within the assayed range of 5nM to 100μM (26 % of fits), (b) IC50 could be extrapolated, IC50 > 100μM (12 % of fits), or (c) fitting was not possible because all values were at baseline (62 % of fits). Compound efficacy ranking. First, for each IC50 value per compound and enzyme, a Z-score was calculated based on the log10 (IC50) value and that of the compounds that produced a successful readout for enzyme i , according to Equation 1: […]

[2] = molecular target: T2, Tyrosine-protein phosphatase non-receptor type 1 (PTP1B) (Homo sapiens, UniProt P18031); assay: Enzyme activity assay (SAMDI-MS), PTP1B; assay type: biochemical; conditions: 10 concentrations, 5 nM to 100 μM, compounds incubated with enzyme 30 min, result in words
T2 sequence (P18031 1-435): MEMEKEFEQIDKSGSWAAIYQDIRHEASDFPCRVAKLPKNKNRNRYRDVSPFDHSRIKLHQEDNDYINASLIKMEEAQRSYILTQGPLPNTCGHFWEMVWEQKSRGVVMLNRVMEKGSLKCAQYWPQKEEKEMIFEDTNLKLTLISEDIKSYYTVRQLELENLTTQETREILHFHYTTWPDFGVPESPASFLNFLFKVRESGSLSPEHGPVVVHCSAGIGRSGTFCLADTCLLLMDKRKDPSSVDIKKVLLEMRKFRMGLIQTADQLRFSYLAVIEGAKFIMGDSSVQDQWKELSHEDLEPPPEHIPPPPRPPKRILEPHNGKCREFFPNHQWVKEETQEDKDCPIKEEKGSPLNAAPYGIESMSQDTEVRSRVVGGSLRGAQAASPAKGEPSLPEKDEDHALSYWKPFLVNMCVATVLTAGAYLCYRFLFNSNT
Procedure: as §1
IC50 values of enzyme inhibition. Inhibition of the enzymes was measured at 10 concentration values in the range of 5 nM to 100 μM for each compound and enzyme, with two technical replicates; the percent inhibition values were determined by SAMDI software. Sigmoidal curves were fitted to the percent inhibition vs log10 (concentration) series, and IC50 values were determined at the crossing point of 50 % inhibition. […] First, for each IC50 value per compound and enzyme, a Z-score was calculated based on the log10 (IC50) value and that of the compounds that produced a successful readout for enzyme i , according to Equation 1: […]

O=c1c(O[C@@H]2O[C@H](CO)[C@@H](O)[C@H](O)[C@H]2O)c(-c2ccc(O)c(O)c2)oc2cc(O)cc(O)c12 [isoquercitrin]
inhibition of enzyme activity, KDM4C [1]: blocked | inhibition of enzyme activity, PTP1B [2]: not

O=c1c(O)c(-c2ccc(O)c(O)c2)oc2cc(O)cc(O)c12 [quercetin]
inhibition of enzyme activity, KDM4C [1]: blocked | inhibition of enzyme activity, KDM4C ([1]; listed as Quercetin): inhibited | inhibition of enzyme activity, KDM4C ([1]; listed as Quercitin): concentration-dependent inhibition | inhibition of enzyme activity, PTP1B ([2]; listed as Quercetin): inhibited | inhibition of enzyme activity, PTP1B ([2]; listed as Quercitin): concentration-dependent inhibition

C[C@@H]1O[C@@H](Oc2c(-c3ccc(O)c(O)c3)oc3cc(O)cc(O)c3c2=O)[C@H](O)[C@H](O)[C@H]1O [quercitrin]
inhibition of enzyme activity, KDM4C [1]: blocked | inhibition of enzyme activity, PTP1B [2]: did not affect
